Test results reported in US6254883A, “Composition for transdermal delivery of drugs” (Novagent Oy, priority 1996, dated 2001).
Entries after “also recorded” stand apart in the source; their conditions may differ.

Key:
[1] = In vitro release of salicylate from anionic ion-exchange fiber through skin (epidermis) in Franz diffusion cells (experiment 3); assay type: in vitro ADME
Text: (§1) In the experiments below a woven cloth was used comprising a cotton textile fiber (RAIEX AK II) in which […] amine groups (-N^+ (CH3)3) had been grafted to the polysaccaride molecules. The surface weight of the cloth was 200 g/m^2. The thickness of the fiber was 30-40 μm, strength 10-20 kg s/mm^2, break stretch 15-40% and the ion exchanger capacity 3.3 mekv/g.
(§2) For release studies circular discs (diameter 25 mm) were cut from the above mentioned anionic ion-exchange fiber cloth. The fiber discs were washed by 5% NaHCO3 solution in a dropfunnel until all chloride was exchanged (tested by silver nitrate in HNO3 solution). […] The discs containing salicylate were dried in 37° C.
(§3) Drug release in vitro from the fiber discs at 37° C. was tested in Franz diffusion cells (Crown Glass Co. Inc., Somerville, N.J.) (FIG. 1). In the figure reference number 11 denotes the donor compartment, 14 receiver compartment, 15 thermostat, 16 stirring rod and 12 sample tube. […] The dissolution medium was pH 7.4 phosphate buffer saline (PBS, 143 mM, μ=0.15 (μ=ionic strength)) in experiment 1 and pH 7.4 phosphate buffer (6 mM, […]) in experiments 2 and 3. To assess the effect of the skin on drug release (experiment 3), a piece of epidermis 13 was placed between the fiber disc and buffer solution. At fixed times, samples of 250 μl were withdrawn and the drug concentration in the samples were determined by using HPLC (Beckman System Gold, Beckman Instrument, San Ramon, Calif.) with a Supelcosil LC-18-DB column (5 μm, 150×4.6 mm) (Supelco Inc., Rohm and Haab Co., Bellefonte, Pa.). The mobile phase was a binary mixture of methanol (40% v/v) and pH 7.0 phosphate buffer (60%). The detection wavelenght was 298 nm, and the flow rate of 1.0 ml/min, the retention time was 2.6 min.

[2] = pH 7.0 phosphate buffer (200 mM) containing 6.27 g/l NaCl; donor 50 μg/ml; cited from earlier work
[3] = In vitro release of salicylate from anionic ion-exchange fiber discs in Franz diffusion cells, 37° C. (experiments 1 and 2)
Text: as §1, §2, §3

[4] = Delivery of tacrine from acidic fiber ion exchanger to blood through skin, Franz diffusion cell (Example 2); assay type: in vitro ADME; conditions: 30 mg tacrine per gram of fiber
[5] = Tacrine permeation across human skin in vitro, Side-by-Side diffusion chambers (Example 3); assay type: in vitro ADME
[6] = cited from earlier work
[7] = buffered solution pH=7; 30 mg tacrine per gram of fiber
Procedure: An acidic fiber ion exchanger was treated with this solution, wherein the following reaction occurred:
wherein R is the back bone of the fiber ion exchanger (polypropylene).
The ion exchange performance of this fiber ion-exchanger was tested in a Franz diffusion cell (see FIG. 1) to
a buffered solution (pH=7), and t

[8] = Tacrine (-HCl), cited from earlier work
[9] = phosphate buffer 6 mM, pH 7,4
Procedure: The cationic fiber discs were washed in 5% HCl solution in a dropfunnel until all sodium was exchanged.
Drug release from the fiber discs was tested in vitro in Franz diffusion cells (Crown Glass Co., Somerville, N.J.) at 37 C. The fiber discs were placed in the diffusion cells so that one side of the cationic ion-exchange fiber was exposed to the dissolution medium (phosphate-buffer6 mM, pH 7,4). Surface area of the fiber discs exposed to the buffer was 0,64 cm^2. […] The column used was Supelcosil LC-18-DB (5 m, 150 mm×4,6 mm), and the mobile phase included 22% of acetonitrile, 1% of triethylamine, and 77% of phosphate buffer at pH 6,5. Detection wavelength was 240 nm and flow rate was 1,0 ml per min.

O=C([O-])c1ccccc1O.[Na+] [Sodium salicylate, sodium salicylate]
release kinetics through skin (in words) ([1]; after initial lag time): followed zero-order kinetic after initial lag time
burst effect with skin (in words) ([1]; with skin): the burst effect disappeared
lag time before steady state release ([1]; with skin): about 2 h
in vitro permeability through skin [2]: about 0.34 μg/cm^2 /h
duration of nearly constant / controlled release (in words) ([3]; anionic ion-exchange fiber, in vitro): two days; also recorded: several days
duration of initial burst ([3]; experiment 1, PBS 143 mM): < 6 h
release rate after initial burst (nearly constant) ([3]; experiment 1, PBS 143 mM, pH 7.4, after initial burst): 20-30 μg/h/cm^2
release rate in the beginning of the experiment (burst) ([3]; experiment 1, PBS 143 mM, pH 7.4, initial burst): about 350 μg/h/cm^2
duration of constant release phase ([3]; experiment 2, phosphate buffer 6 mM, μ=0.20): about 50 h
rate of salicylate release during the constant release phase ([3]; experiment 2, phosphate buffer 6 mM, μ=0.20, pH 7.4): about 60 μg/h/cm^2
release rate and released amount, phosphate buffer vs PBS (in words) ([3]; phosphate buffer (6 mM, μ=0.20) compared with PBS (143 mM, μ=0.15)): higher in phosphate buffer (6 mM, μ=0.20) than in PBS solution (143 mM, μ=0.15)

Nc1c2c(nc3ccccc13)CCCC2 [tacrine, 9-amino-1,2,3,4-tetrahydroacridine]
amount of tacrine delivered to blood through skin (in words) [4]: pharmacologically significant amounts
steady-state flux of tacrine across human skin ([5]; 5% solution, pH 7,4, in vitro): 2,95 g/h per cm^2
duration of constant drug delivery from the fiber across skin ([5]; cationic ion-exchange fiber): 120 h
delivery of tacrine across the skin from the cationic ion-exchange fiber ([5]; cationic ion-exchange fiber with 3,5% tacrine in HEPES-buffer): about 0,003 g/h per cm^2
lag-time of permeation ([5]; tacrine solution, human skin, pH 7,4): ca. 24 h
side-effects above clinical concentration (in words) ([6]; above about 5-30 ng/ml, oral): unwanted side-effects are more likely to take place
elimination half-life T1/2 ([6]; human, in vivo): 1,4-3,6 h
first-pass metabolism (in words) ([6]; in vivo): extensive first-pass metabolism
peroral bioavailability ([6]; peroral): 5-35%
amount of tacrine delivered to buffered solution (in words) [7]: pharmacologically significant amounts
solubility in water (in words) [8]: soluble in water
charge at physiological pH (in words) ([8]; physiological pH, assumed): assumed to carry a positive charge
tacrine release rate from the cationic ion-exchange fiber ([9]; during the first 10 hours): about 375 g/h per cm^2
duration of initial burst of tacrine release ([9]; 37 C.): 6 to 12 h
tacrine released from the fiber after initial burst ([9]; after initial burst of about 6-12 h): 50%
